The record followed here is patent EP4603546A1, “SOLID DISPERSION CONTAINING SUBSTANCE TO BE DISPERSED, PHARMACEUTICAL COMPOSITION CONTAINING SAME, AND PRODUCTION METHODS THEREFOR” (CHUGAI SEIYAKU KABUSHIKI KAISHA, priority 2022, dated 2024).

The structures appear in SMILES notation. ≈ marks a conversion by molar mass, not a printed value. Numbered stars: 1 amine (or outer) side, 2 acyl side, 3 side chain; on linkers, the order of the positions; unused ones are H or OH. Bridge positions count the residues as written; N and C are the ends. Square brackets hold non-standard residues; d marks the D form. Peptide text beside a SMILES is read from it. * marks the point of attachment. hPhe(3,5-F2-4-CF3) = N[C@@H](CCc1cc(F)c(C(F)(F)F)c(F)c1)C(=O)O; hPhe(3-Cl-4-CF3) = N[C@@H](CCc1ccc(C(F)(F)F)c(Cl)c1)C(=O)O; NMePhe(4-CF3) = CN[C@@H](Cc1ccc(C(F)(F)F)cc1)C(=O)O; NEtPhe(4-Me) = CCN[C@@H](Cc1ccc(C)cc1)C(=O)O; NMePhe(4-Me) = CN[C@@H](Cc1ccc(C)cc1)C(=O)O; NMedβ3hAla = C[C@H](CC(=O)[*:2])N(C)[*:1]; NMeGly(cPent) = CN[C@H](C(=O)O)C1CCCC1; Pro(4,4-F2) = O=C(O)[C@@H]1CC(F)(F)CN1; NMeGly(cBu) = CN[C@H](C(=O)O)C1CCC1; NMeCha = CN[C@@H](CC1CCCCC1)C(=O)O; Hyp = O=C(O)[C@@H]1C[C@@H](O)CN1; NMeChg = CN[C@H](C(=O)O)C1CCCCC1; NMeI = CC[C@H](C)[C@H](NC)C(=O)O; NMeD = CN[C@@H](CC(=O)O)C(=O)O; NMeL = CN[C@@H](CC(C)C)C(=O)O; NMeA = CN[C@@H](C)C(=O)O; Pyrrolidide = C1CCN(*)C1; Ac5c = NC1(C(=O)O)CCCC1; Aze = O=C(O)[C@@H]1CCN1; Sar = CNCC(=O)O Some results are limits rather than exact numbers.

This data set in a line: physchem. The settings on record: pH 6.5, aqueous buffer. The protocol:
Solubility (unit: mg/mL) was calculated from the measured compound concentration. The HPLC conditions are as follows. Detector: ultraviolet absorption photometer (measurement wavelength: 230 nm) Column: stainless steel tube of 2.1 mm inner diameter, 5 cm long filled with 1.7 µm ethylene cross-linked hybrid particles for liquid chromatography Column temperature: constant temperature near 70°C Mobile phase A: water/trifluoroacetic acid mixed solution (2000/1) Mobile phase B: acetonitrile/trifluoroacetic acid mixed solution (2000/1) Liquid delivery of mobile phase: concentration gradient control by changing the mixing ratio of mobile phase A and mobile phase B as shown in Table 8 below [Table 8]
`CC[C@H](C)[C@@H]1NC(=O)[C@H](CC(C)C)N(C)C(=O)C[C@@H](C(=O)N(C)C)N(C)C(=O)[C@H](C2CCCC2)N(C)C(=O)C2(CCCC2)NC(=O)[C@@H]2CCCN2C(=O)[C@H](CCc2cc(F)c(C(F)(F)F)c(F)c2)NC(=O)CN(C)C(=O)[C@H](Cc2ccc(C)cc2)N(CC)C(=O)[C@@H]2CCN2C(=O)[C@H](C)N(C)C1=O` [Compound I] ([NMeL]I[NMeA][Aze][NEtPhe(4-Me)][Sar][hPhe(3,5-F2-4-CF3)]P[Ac5c][NMeGly(cPent)][NMeD]-NMe2; lactam N-11) had a solubility (thermodynamic) of less than 1 µg/mL.
Next, `CC[C@H](C)[C@@H]1NC(=O)[C@H](C2CCC2)N(C)C(=O)C[C@@H](C(=O)N2CCCC2)N(C)C(=O)[C@H](C2CCCCC2)N(C)C(=O)C2(CCCC2)NC(=O)[C@@H]2CC(F)(F)CN2C(=O)[C@H](CCc2cc(F)c(C(F)(F)F)c(F)c2)NC(=O)CN(C)C(=O)[C@H](CC2CCCCC2)N(C)C(=O)CN(C)C(=O)CN(C)C1=O` [Compound V] ([NMeGly(cBu)]I[Sar][Sar][NMeCha][Sar][hPhe(3,5-F2-4-CF3)][Pro(4,4-F2)][Ac5c][NMeChg][NMeD]-Pyrrolidide; lactam N-11): less than 1 µg/mL; `CC[C@H](C)[C@@H]1NC(=O)[C@H](CC(C)C)N(C)C(=O)C[C@@H](C(=O)N(C)C)N(C)C(=O)[C@H]([C@@H](C)CC)N(C)C(=O)C2(CCCC2)NC(=O)[C@@H]2CCCN2C(=O)[C@H](CCc2ccc(C(F)(F)F)c(Cl)c2)NC(=O)CN(C)C(=O)[C@H](Cc2ccc(C)cc2)N(C)C(=O)[C@@H]2CCN2C(=O)[C@H](C)N(C)C1=O` [Compound IV] ([NMeL]I[NMeA][Aze][NMePhe(4-Me)][Sar][hPhe(3-Cl-4-CF3)]P[Ac5c][NMeI][NMeD]-NMe2; lactam N-11): 20 µg/mL (≈ 14.2 µM).
Next, `CC[C@H](C)[C@@H]1NC(=O)[C@H](CC(C)C)N(C)C(=O)C[C@@H](C(=O)N2CCCC2)N(C)C(=O)[C@H]([C@@H](C)CC)N(C)C(=O)C2(CCCC2)NC(=O)[C@@H]2CCCN2C(=O)[C@H](CCc2ccc(C(F)(F)F)c(Cl)c2)NC(=O)CN(C)C(=O)[C@H](Cc2ccc(C)cc2)N(C)C(=O)[C@@H]2CCN2C(=O)[C@H](C)N(C)C1=O` [Compound III] ([NMeL]I[NMeA][Aze][NMePhe(4-Me)][Sar][hPhe(3-Cl-4-CF3)]P[Ac5c][NMeI][NMeD]-Pyrrolidide; lactam N-11): 10 µg/mL (≈ 6.96 µM); `CCO[C@@H]1C[C@H]2C(=O)NC3(CCCC3)C(=O)N(C)[C@@H]([C@@H](C)CC)C(=O)N(C)[C@H](C)CC(=O)N(C)[C@@H](CC(C)C)C(=O)N[C@@H]([C@@H](C)CC)C(=O)N(C)[C@@H](C)C(=O)N3CC[C@H]3C(=O)N(C)[C@@H](Cc3ccc(C(F)(F)F)cc3)C(=O)N(C)CC(=O)N[C@@H](CCc3ccc(C(F)(F)F)c(Cl)c3)C(=O)N2C1` [Compound II] (cyclo([Ac5c][NMeI][NMedβ3hAla][NMeL]I[NMeA][Aze][NMePhe(4-CF3)][Sar][hPhe(3-Cl-4-CF3)][Hyp](Et))): 1 µg/mL (≈ 0.689 µM).
